Calls of active or inactive are those of the source. No cut-off for these calls is given here.
Experiments:
[1] = Metabolic stability in mouse brain homogenate assessed as degradation half life at 10 mM measured upto 480 mins by RP-HPLC analysis; format: ADME, tissue-based
[2] = Ratio of AUC in brain to plasma in Kunming mouse at 1 mg/kg, iv measured upto 240 mins by LC-MS/MS analysis; format: ADME, organism-based; details: read-out: BPR
[3] = AUC in Kunming mouse plasma at 1 mg/kg, iv measured upto 240 mins by LC-MS/MS analysis; format: ADME, organism-based; design: time < 240 min, dose 1 mg/kg, route iv
[4] = Induction of antinociceptive tolerance in Kunming mouse assessed as decrease in tail flick latency at 0.88 nmol/kg, sc administered once daily for 8 days and measured once daily by tail-flick test; format: toxicity, organism-based; details: in vivo, 192 h, time 8 day
[5] = Agonist activity at NPFF1R (unknown origin) transfected in CHO cells co-expressing Galphaq15 assessed as increase in calcium mobilization by measuring maximal efficacy by Fluo-4AM dye based assay relative to control; format: functional, cell-based; details: Homo sapiens, filed as agonist
[6] = AUC in Kunming mouse brain at 1 mg/kg, iv measured upto 240 mins by LC-MS/MS analysis; format: ADME, organism-based; design: time < 240 min, dose 1 mg/kg, route iv; details: in vivo, 4 h
[7] = tested on: Mus musculus; assay: Antinociceptive activity in Kunming mouse assessed as changes in tail flick latency by measuring maximal possible effect at 0.88 nmol/kg, sc measured after 240 mins by tail-flick test; format: functional; details: 4 h
[8] = Toxicity in Kunming mouse assessed as effect on motor coordination at 88 nmol/kg, sc measured after 15 to 45 mins by rotarod test; format: organism-based; details: in vivo, time 15-45 min
[9] = target: T1, Delta-type opioid receptor (Homo sapiens, UniProt P41143); assay: Agonist activity at DOR (unknown origin) transfected in CHO cells co-expressing Galphaq15 assessed as increase in calcium mobilization by measuring maximal efficacy by Fluo-4AM dye based assay relative to control; format: functional, cell-based; details: filed as agonist
T1 sequence (P41143 whole entry): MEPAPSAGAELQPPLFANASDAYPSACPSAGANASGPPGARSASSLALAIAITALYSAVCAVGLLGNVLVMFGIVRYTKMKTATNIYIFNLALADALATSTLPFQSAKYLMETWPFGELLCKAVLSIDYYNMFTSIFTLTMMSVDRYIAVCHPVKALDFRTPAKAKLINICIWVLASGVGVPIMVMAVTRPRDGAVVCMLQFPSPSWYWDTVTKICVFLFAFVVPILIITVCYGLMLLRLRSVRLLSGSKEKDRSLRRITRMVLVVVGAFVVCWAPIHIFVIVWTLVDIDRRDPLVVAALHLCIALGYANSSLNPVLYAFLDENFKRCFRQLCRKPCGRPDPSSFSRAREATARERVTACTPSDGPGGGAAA

[10] = tested on: Mus musculus; assay: Antinociceptive activity in Kunming mouse assessed as changes in tail flick latency at 0.88 nmol/kg, sc pretreated with nor-binaltorphimine at 10 nmol, icv for 30 mins followed by compound addition and measured for 360 mins by tail-flick test; format: functional, organism-based
[11] = Toxicity in sc dosed 16 hrs fasted Kunming mouse assessed as constipation by measuring inhibition of gastrointestinal transit administered for 15 mins followed by charcoal meal and measured after 30 mins; format: organism-based; details: in vivo, 0.75 h, time 45 min
[12] = Toxicity in Kunming mouse assessed as addiction behavior at 88 nmol/kg, sc administered for 3 days starting from day 2 and measured on day 5 by conditioned place preference test; format: organism-based; details: in vivo, 96 h, time 4 day
[13] = tested on: Mus musculus; assay: Antinociceptive activity in Kunming mouse assessed as changes in tail flick latency at 0.88 nmol/kg, sc pretreated with naloxone methiodide at 5 nmol, icv for 10 mins followed by compound addition and measured for 360 mins by tail-flick test; format: functional, organism-based
[14] = target: T2, Mu-type opioid receptor (Homo sapiens, UniProt P35372); assay: Agonist activity at MOR (unknown origin) transfected in CHO cells co-expressing Galphaq15 assessed as increase in calcium mobilization by measuring maximal efficacy by Fluo-4AM dye based assay relative to control; format: functional, cell-based; details: filed as agonist
T2 sequence (P35372 whole entry): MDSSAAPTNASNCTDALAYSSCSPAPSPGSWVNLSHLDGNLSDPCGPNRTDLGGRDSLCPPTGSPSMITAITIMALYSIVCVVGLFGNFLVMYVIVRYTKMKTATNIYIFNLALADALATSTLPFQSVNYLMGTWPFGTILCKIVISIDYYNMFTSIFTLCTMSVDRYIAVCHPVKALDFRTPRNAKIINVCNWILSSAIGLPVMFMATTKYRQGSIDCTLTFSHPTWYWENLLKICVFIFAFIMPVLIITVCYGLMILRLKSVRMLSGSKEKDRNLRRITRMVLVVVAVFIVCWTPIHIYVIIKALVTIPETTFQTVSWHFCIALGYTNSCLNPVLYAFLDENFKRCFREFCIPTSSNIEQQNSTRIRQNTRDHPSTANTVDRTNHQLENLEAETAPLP

[15] = tested on: Mus musculus; assay: Antinociceptive activity in Kunming mouse assessed as changes in tail flick latency by measuring maximal possible effect at 0.88 nmol/kg, sc measured after 20 mins by tail-flick test; format: functional
[16] = tested on: Mus musculus; assay: Antinociceptive activity in Kunming mouse assessed as changes in tail flick latency at 0.88 nmol/kg, sc pretreated with naltrindole at 10 nmol, icv for 10 mins followed by compound addition and measured for 360 mins by tail-flick test; format: functional, organism-based
[17] = tested on: Mus musculus; assay: Antinociceptive activity in Kunming mouse assessed as changes in tail flick latency at 0.88 nmol/kg, sc pretreated with beta-funaltrexamine at 10 nmol, icv for 4 hrs followed by compound addition and measured for 360 mins by tail-flick test; format: functional, organism-based
[18] = target: T3, Neuropeptide FF receptor 2 (Homo sapiens, UniProt Q9Y5X5); assay: Agonist activity at NPFF2R (unknown origin) transfected in HEK293 cells co-expressing Galphaq15 assessed as increase in calcium mobilization by measuring maximal efficacy by Fluo-4AM dye based assay relative to control; format: functional, cell-based; details: filed as agonist
T3 sequence (Q9Y5X5 whole entry): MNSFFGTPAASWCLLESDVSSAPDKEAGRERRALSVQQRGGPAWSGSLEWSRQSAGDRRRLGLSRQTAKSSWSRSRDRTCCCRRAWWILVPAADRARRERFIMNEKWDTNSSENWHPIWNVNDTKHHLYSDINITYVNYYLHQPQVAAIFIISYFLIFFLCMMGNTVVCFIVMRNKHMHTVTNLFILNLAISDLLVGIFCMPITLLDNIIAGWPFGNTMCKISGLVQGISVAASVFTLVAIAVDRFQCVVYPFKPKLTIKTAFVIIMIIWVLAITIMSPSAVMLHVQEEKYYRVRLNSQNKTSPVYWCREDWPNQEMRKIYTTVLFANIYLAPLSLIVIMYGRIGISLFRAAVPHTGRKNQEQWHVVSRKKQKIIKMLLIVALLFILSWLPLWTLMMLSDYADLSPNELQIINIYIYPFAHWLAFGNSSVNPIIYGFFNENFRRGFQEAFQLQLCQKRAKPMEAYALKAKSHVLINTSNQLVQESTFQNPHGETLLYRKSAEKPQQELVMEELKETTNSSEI

[19] = Metabolic stability in mouse plasma assessed as degradation half life at 10 mM measured upto 480 mins by RP-HPLC analysis; format: ADME, cell-free
[20] = tested on: Mus musculus; assay: Antinociceptive activity in Kunming mouse assessed as changes in tail flick latency by measuring maximal possible effect at 0.88 nmol/kg, sc measured after 30 mins by tail-flick test; format: functional; details: 0.5 h
[21] = tested on: Mus musculus; assay: Antinociceptive activity in Kunming mouse assessed as changes in tail flick latency by measuring time duration of action at 1 to 10 pmol, icv measured for 360 mins by tail-flick test; format: functional; details: dose 1-10 pmol, 6 h
[22] = Toxicity in Kunming mouse assessed as reduction in respiration frequency at 88 nmol/kg, sc measured upto 100 mins by whole-body plethysmography; format: organism-based; details: in vivo, 1.667 h
[23] = target: T1, Delta-type opioid receptor; assay: Agonist activity at DOR (unknown origin) transfected in CHO cells co-expressing Galphaq15 assessed as increase in calcium mobilization by Fluo-4AM dye based assay; format: functional, cell-based
[24] = tested on: Mus musculus; assay: Antinociceptive activity in Kunming mouse assessed as changes in tail flick latency by measuring time duration of antinociceptive effect at 0.88 nmol/kg, sc by tail-flick test; format: functional
[25] = tested on: Mus musculus; assay: Antinociceptive activity in icv dosed Kunming mouse assessed as changes in tail flick latency measured for 360 mins by tail-flick test; format: functional
[26] = target: T4, Kappa-type opioid receptor (Homo sapiens, UniProt P41145); assay: Agonist activity at KOR (unknown origin) transfected in CHO cells co-expressing Galphaq15 assessed as increase in calcium mobilization by measuring maximal efficacy by Fluo-4AM dye based assay relative to control; format: functional, cell-based; details: filed as agonist
T4 sequence (P41145 whole entry): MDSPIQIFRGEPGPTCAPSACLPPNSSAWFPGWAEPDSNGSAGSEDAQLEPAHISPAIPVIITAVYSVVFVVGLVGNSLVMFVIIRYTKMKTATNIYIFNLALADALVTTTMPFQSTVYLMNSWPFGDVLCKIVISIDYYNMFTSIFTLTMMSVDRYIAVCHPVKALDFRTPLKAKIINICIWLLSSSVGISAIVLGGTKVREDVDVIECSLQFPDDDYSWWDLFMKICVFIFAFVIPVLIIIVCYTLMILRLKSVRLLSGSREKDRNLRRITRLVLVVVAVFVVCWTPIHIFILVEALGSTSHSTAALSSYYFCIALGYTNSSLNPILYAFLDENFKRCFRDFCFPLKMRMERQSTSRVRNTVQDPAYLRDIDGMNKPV

[27] = tested on: Mus musculus; assay: Antinociceptive activity in Kunming mouse assessed as changes in tail flick latency by measuring time duration of action at 0.88 to 8.82 nmol/kg, po measured for 360 mins by tail-flick test; format: functional; details: dose 0.88-8.82 nmol/kg, 6 h
[28] = tested on: Mus musculus; assay: Antinociceptive activity in sc dosed Kunming mouse assessed as changes in tail flick latency measured after 10 to 360 mins by tail-flick test; format: functional; details: time 10-360 min
[29] = tested on: Mus musculus; assay: Antinociceptive activity in Kunming mouse assessed as changes in tail flick latency at 0.009 nmol/kg, sc pretreated with 1-adamantanecarbonyl-RF-NH2 at 10 nmol, icv for 5 mins followed by compound addition and measured for 360 mins by tail-flick test; format: functional, organism-based
[30] = Toxicity in sc dosed Kunming mouse assessed as effect on naloxone-induced jumping response at 88 nmol/kg, sc administered every 8 hrs for 3 days followed by naloxone administration at 2 hrs post last dose and measured immediately by Nal-precipitated withdraw test; format: organism-based; details: in vivo, 74 h
[31] = tested on: Mus musculus; assay: Antinociceptive activity in po dosed Kunming mouse assessed as changes in tail flick latency measured for 360 mins by tail-flick test; format: functional
[32] = target: T4, Kappa-type opioid receptor; assay: Agonist activity at KOR (unknown origin) transfected in CHO cells co-expressing Galphaq15 assessed as increase in calcium mobilization by Fluo-4AM dye based assay; format: functional, cell-based
[33] = Toxicity in Kunming mouse assessed as effect on locomotor activity at 88 nmol/kg, sc measured after 20 to 180 mins by open field test; format: organism-based; details: in vivo, time 20-180 min
[34] = tested on: Mus musculus; assay: Antinociceptive activity in Kunming mouse assessed as changes in tail flick latency by measuring maximal possible effect at 0.88 nmol/kg, sc measured after 120 mins by tail-flick test; format: functional; details: 2 h
[35] = tested on: Mus musculus; assay: Antinociceptive activity in Kunming mouse assessed as changes in tail flick latency by measuring maximal possible effect at 0.88 nmol/kg, sc measured after 60 mins by tail-flick test; format: functional; details: 1 h
[36] = target: T3, Neuropeptide FF receptor 2; assay: Agonist activity at NPFF2R (unknown origin) transfected in HEK293 cells co-expressing Galphaq15 assessed as increase in calcium mobilization by Fluo-4AM dye based assay; format: functional, cell-based
[37] = target: T2, Mu-type opioid receptor; assay: Agonist activity at MOR (unknown origin) transfected in CHO cells co-expressing Galphaq15 assessed as increase in calcium mobilization by Fluo-4AM dye based assay; format: functional, cell-based

**Q.** Which results are given for `CN1C(=O)CNC(=O)[C@H](N[C@@H](Cc2ccc(O)cc2)C(=O)O)CCCC/C=C\C[C@@H](C(=O)N2CCC[C@H]2C(=O)N[C@@H](CCC(N)=O)C(=O)N[C@@H](CCCNC(=N)N)C(=O)N[C@@H](Cc2ccccc2)C(N)=O)NC(=O)[C@@H]1Cc1ccccc1`?
**A.** half-life at 10000 µM [1]: 1.78 h; Kp at 4 h [2]: 1.35; AUC at 4 h [3]: 2270 ng·h/mL; Activity [4]: Non-Toxic; Emax [5]: 93.7%; AUC [6]: 183.2 µg·min/g; MPE [7]: 46.2%; Activity [8]: Non-Toxic; Emax [9]: 81.9%; Activity [10]: inactive; ED50 [11]: 84 nmol/kg; Activity [12]: Non-Toxic; Activity [13]: inactive; Emax [14]: 98.1%; MPE [15]: 89.8%; Activity [16]: Active; Activity [17]: inactive; Emax [18]: 89.2%; half-life at 10000 µM [19]: 0.447 h; MPE [20]: 89.5%; Time [21]: <=360 min; Activity [22]: Non-Toxic; EC50 [23]: 56.2 nM; Time [24]: 360 min; Activity [25]: Dose-Dependent Effect; ED50 ([25]; 6 h): 1.38 pmol; Emax [26]: 99.2%; Time [27]: <=360 min; Activity [28]: Dose-Dependent Effect; ED50 [28]: 1e-05 µmol/kg; Activity [29]: Active; Activity [30]: Non-Toxic; Activity [31]: Dose-Dependent Effect; ED50 ([31]; 6 h): 0.00135 µmol/kg; EC50 [32]: 169 nM; Activity [33]: Non-Toxic; MPE [34]: 58.9%; MPE [35]: 85.4%; EC50 [36]: 144 nM; EC50 [37]: 2.8 nM

Reference: ChEMBL document CHEMBL5356973 (J Med Chem, 2023)
